How the values were obtained:
[1] = mouse, microsomes, 50 µM
in vitro = settings: mouse, microsomes
Description: Half life in mouse liver microsomes at 50 uM in presence of cofactors for phase 1 and 2 metabolism

MR49F = assay: animal or person; type: functional; settings: Homo sapiens, po, 336 h, read-out: TGI
Description: Antitumor activity against human MR49F cells xenografted in NSG cells assessed as tumor growth inhibition at 100 mg/kg/day, po for 14 days and measured twice weekly relative to control

Row | Compound | inhibition in vivo at 100 mg/kg/day (MR49F) [%] | other results
1 | C[C@](O)(COc1ccc(C#N)cc1)C(=O)Nc1ccc(C#N)c(C(F)(F)F)c1 [ENOBOSARM] | – | CLH [1]: 1400 µL/min/mg
2 | C[C@](O)(CN1CCc2cc(F)ccc21)C(=O)Nc1ccc(C#N)c(Cl)c1 | – | half-life at 50 µM (in vitro): 9.16 min
3 | C[C@](O)(Cn1ccc2cc(F)c(-c3ccccc3)cc21)C(=O)Nc1ccc(C#N)c(Cl)c1 | 40 to 60 | –
4 | C[C@](O)(Cn1ccc2c(F)cccc21)C(=O)Nc1ccc(C#N)c(Cl)c1 | 40 to 60 | –

— ChEMBL document CHEMBL4411271, “New Generation of Selective Androgen Receptor Degraders: Our Initial Design, Synthesis, and Biological Evaluation of New Compounds with Enzalutamide-Resistant Prostate Cancer Activity” (J Med Chem, 2019)
